Measured values as given in article PMC7341468 (BMC Pharmacology & Toxicology, 2020).

Columns and labels:
[1] = tested on: methicillin-resistant Staphylococcus aureus (MRSA)
Procedure: This retrospective study was conducted between June 2015 and May 2019, and was approved by the Institutional Review Board of Hyogo College of Medicine (No. 3266). […] The analysis of Cmin and the safety population included all eligible patients.

MRSA isolates = settings: all MRSA isolates; microdilution, CLSI M02 and M07

Q: With teicoplanin as the substance, how does the “Clinical success at the end of the therapy” value ([1]; all patients of the clinical efficacy population, 55 of 76 patients) read?
A: The value was 72.4%.

Q: And the “Crude odds ratio (95% CI) for early clinical response” value ([1]; factor: Enhanced high dose loading regimen, univariate analysis)?
A: The value was 0.90 (0.31–2.63).

Q: What about the “Adjusted odds ratio (95%CI) for early clinical response” value ([1]; human, in vivo) of the same substance?
A: The value was 3.95 (1.25–12.53).

Q: And the “Teicoplanin MICs” value (MRSA isolates)?
A: The value was ≤ 2 µg/mL.
